Source: publication PMC6278399, “Synthesis and Anticancer Activity Evaluation of Hydrolyzed Derivatives of Panaxnotoginseng Saponins” (Molecules, 2018)

Columns and labels:
[1] = tested on: human colon cancer cells (HT-29); test: MTT cytotoxicity assay, HT-29; assay type: cell-based; settings: Homo sapiens; HT-29, MTT, 48 h
Text: (§1) In the study, five cancer cell lines (human colon cancer cells (HT-29), gastric cancer cells (BGC-823), cervical cancer cells (Hela), human breast cancer cells (MCF-7), and human lung cancer cells A549)), and two normal cell lines (human gastric epithelial cells (GES-1) and human ovarian epithelial cells (IOSE144)) were used for the evaluation of biological activity. IOSE144 cells were donated by Professor Piao Huri of Yanbian University, all other cells were purchased from the American Type Culture Collection (ATCC, Manassas, VA, USA). Cells were cultured in Dulbecco’s Modified Eagle’s Medium (DMEM), supplemented with 10% heat-inactivated fetal bovine serum (FBS), 1% 100 μg/mL penicillin and 100 μg/mL streptomycin in a humidified atmosphere containing 5% CO2 at 37 °C. Cell viability was measured using the MTT assay. Cells were seeded in 96 well microtiter plates in a volume of 100 μL medium. All compounds tested were dissolved and further diluted in DMSO. After overnight incubation, cells were treated with different test concentrations or carrier solvents alone in a final volume of 100 μL with five replicates each. […] Cells were treated with compound (80, 40, 20, 10, 5 μM) for 48 h. Then, 10 μL of MTT (5 mg/mL) was added to each well and the cells were incubated at 37 °C in the dark for 4 h. Supernatants were removed and formazan crystals were dissolved in DMSO (100 μL/well). The solution was agitated for 10 min, and the absorbance was measured at 490 nm using microplate reader (imark, BIO-RAD, Hercules, CA, USA) to calculate the 50% inhibitory concentration (IC50). Ginsenoside-Rg3, panaxadiol sapogenin (PD), AD-2 (25-OH-PPD) and AD-1 (25-OCH3-PPD) were used as standard reference compounds.

[2] = tested on: gastric cancer cells (BGC-823); test: MTT cytotoxicity assay, BGC-823; assay type: cell-based, human; settings: Homo sapiens; BGC-823, MTT, 48 h
Text: as §1

[3] = tested on: cervical cancer cells (Hela); test: MTT cytotoxicity assay, Hela; assay type: cell-based, human; settings: Homo sapiens, 48 h
Text: as §1

[4] = tested on: human breast cancer cells (MCF-7); test: MTT cytotoxicity assay, MCF-7; assay type: cell-based; settings: Homo sapiens, MCF7; MCF-7, MTT, 48 h
Text: as §1

[5] = tested on: human lung cancer cells A549; test: MTT cytotoxicity assay, A549; assay type: cell-based; settings: Homo sapiens, 48 h
Text: as §1

[6] = MTT cytotoxicity assay, GES-1 normal cells; assay type: cell-based, human; settings: human
Text: as §1

[7] = MTT cytotoxicity assay, IOSE144 normal cells; assay type: cell-based, human; settings: human
Text: as §1

[8] = tested on: five cancer cell lines (HT-29, BGC-823, Hela, MCF-7, A549); test: Cytotoxic activity on five cancer cell lines (overall statement); assay type: cell-based, human; settings: MTT
Text: as §1

[9] = GES-1 gastric epithelial cells (normal cell line), GES-1 normal cells, MTT, 48 h, read-out: IC50
[10] = IOSE144 ovarian epithelial cells (normal cell line), IOSE144 normal cells, MTT, 48 h, read-out: IC50

| Structure (SMILES) | IC50 [1] [µM] | IC50 [2] [µM] | IC50 [3] [µM] | IC50 [4] [µM] | IC50 [5] [µM] | IC50 at 48 h [6, 9] [µM] | IC50 at 48 h [7, 10] [µM] | IC50 at 48 h [6] [µM] | IC50 at 48 h [7] [µM] | melting point [°C] | anticancer activity (in words) [8] |
| --- | --- | --- | --- | --- | --- | --- | --- | --- | --- | --- | --- |
| O=C(O)c1ccccc1O [Salicylic acid, reference compound] | 83.2 ± 1.65 | > 100 | > 100 | > 100 | > 100 | > 100 | > 100 | – | – | – | – |
| CC1(C)CCC[C@](C)([C@H]2CC[C@]3(C)[C@@H]2[C@H](O)C[C@@H]2[C@@]4(C)CC[C@H](O)C(C)(C)[C@@H]4CC[C@]23C)O1 [PD, panaxadiol, reference compound] | 73.4 ± 1.84 | 80.13 ± 0.36 | 72.15 ± 0.52 | 62 ± 1.63 | 43.1 ± 1.05 | > 100 | > 100 | – | – | – | – |
| CC(=O)Oc1ccccc1C(=O)OC1CCC2(C)C(CCC3(C)C2CC(OC(C)=O)C2C(C(C)(O)CCCC(C)(C)O)CCC23C)C1(C)C [Compound 7b, 20(R)-Dammarane-20,25-diol-12β-o-acetyl-3β-yl-2′-acetylbenzoate] | 28.6 ± 0.65 | 18.4 ± 0.35 | 19.53 ± 0.19 | 22.6 ± 1.02 | 28.4 ± 0.95 | – | – | > 100 | > 100 | 268 to 270 | – |
| CC1(C)CCC[C@](C)(C2CC[C@]3(C)C2[C@H](OC(=O)c2ccccc2O)CC2[C@@]4(C)CC[C@H](O)C(C)(C)C4CC[C@]23C)O1 (stereo partly drawn) [Compound 12a, 20(R)-Pananxadiol-3β-hydroxy-12β-yl-2′-hydroxybenzoate] | > 100 | > 100 | > 100 | 60.1 ± 2.45 | 50.2 ± 0.94 | – | – | > 100 | > 100 | 248 to 250 | – |
| COC(C)(C)CCCC(C)(O)C1CCC2(C)C1C(OC(=O)c1ccccc1O)CC1C3(C)CCC(O)C(C)(C)C3CCC12C [Compound 3a, 20(R)-25-Methoxydammarane-3β,20-diol-12β-yl-2′-hydroxybenzoate] | 10.5 ± 0.25 | 15.1 ± 0.24 | 9.78 ± 0.03 | 5.34 ± 0.04 | 13 ± 0.25 | – | – | > 100 | > 100 | 235 to 237 | strong anticancer activity |
| CC(C)(O)CCCC(C)(O)C1CCC2(C)C1C(O)CC1C3(C)CCC(OC(=O)c4ccccc4O)C(C)(C)C3CCC12C [Compound 9a, 20(R)-Dammarane-12β,20,25-triol-3β-yl-2′-hydroxybenzoate] | 11.5 ± 0.23 | 26.52 ± 0.26 | 37.3 ± 0.39 | 50.44 ± 0.11 | 35.9 ± 0.41 | – | – | > 100 | > 100 | 295 to 297 | – |
| CC(=O)OC1CC2C3(C)CCC(OC(=O)c4ccccc4O)C(C)(C)C3CCC2(C)C2(C)CCC(C(C)(O)CCCC(C)(C)O)C12 [Compound 6b, 20(R)-Dammarane-20,25-diol-12β-o-acetyl-3β-yl-2′-hydroxybenzoate] | 15.2 ± 0.41 | 40.6 ± 1.05 | 48.3 ± 2.16 | > 100 | > 100 | – | – | > 100 | > 100 | 278 to 280 | – |
| CC(C)(CCCC(C)(O)C1CCC2(C)C1C(O)CC1C3(C)CCC(O)C(C)(C)C3CCC12C)OC(=O)c1ccccc1O [Compound 8a, 20(R)-Dammarane-3β,12β,20-triol-25-yl-2′-hydroxybenzoate] | > 100 | > 100 | > 100 | 50.7 ± 1.34 | 47.1 ± 0.59 | – | – | > 100 | > 100 | 223 to 225 | – |
| CC(C)(CCCC(C)(O)C1CCC2(C)C1C(OC(=O)c1ccccc1O)CC1C3(C)CCC(OC(=O)c4ccccc4O)C(C)(C)C3CCC12C)OC(=O)c1ccccc1O [Compound 1a, 20(R)-Dammarane-20-hydroxy-3β,12β,25-tri-yl-2′-hydroxybenzoate] | 9.23 ± 0.08 | 11.8 ± 0.21 | 3.23 ± 0.34 | 20.31 ± 0.11 | 15.69 ± 0.1 | – | – | > 100 | > 100 | 192 to 194 | strong anticancer activity |
